The values below come from article PMC12251151, “Understanding Anti-Obesity Potential of Four Porphyrin Compounds by Investigating Pancreatic Lipase Inhibition” (Molecules, 2025).

This assay has as its target T1, pancreatic lipase (PL) (Sus scrofa, UniProt P00591).
T1 construct: lipase (porcine pancreas); purchased Shanghai Yuanye Co., Ltd., Shanghai, China; host or cells: porcine pancreas
T1 sequence (P00591 1-450): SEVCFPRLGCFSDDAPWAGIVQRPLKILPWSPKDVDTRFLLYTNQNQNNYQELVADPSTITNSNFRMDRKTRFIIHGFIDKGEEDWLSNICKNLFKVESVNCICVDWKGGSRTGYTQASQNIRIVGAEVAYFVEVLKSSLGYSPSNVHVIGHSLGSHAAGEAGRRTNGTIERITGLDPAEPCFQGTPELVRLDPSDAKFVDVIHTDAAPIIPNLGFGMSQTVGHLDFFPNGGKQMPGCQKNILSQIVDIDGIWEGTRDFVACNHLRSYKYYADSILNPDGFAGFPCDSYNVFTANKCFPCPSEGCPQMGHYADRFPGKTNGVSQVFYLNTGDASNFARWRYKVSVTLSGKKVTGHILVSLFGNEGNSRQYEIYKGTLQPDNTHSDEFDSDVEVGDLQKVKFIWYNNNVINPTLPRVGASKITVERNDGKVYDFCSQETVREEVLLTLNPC
Put plainly: Fluorescence quenching and binding interaction with PL (Stern-Volmer, double logarithmic, Van't Hoff). The conditions noted are these: for Fluorescence quenching mechanism on PL: Stern-Volmer analysis; for Fluorescence quenching mechanism on PL / ΔH^0 / ΔS^0: 298-310 K; for ΔH^0 / ΔS^0: Van't Hoff; for Main driving forces of binding to PL: from signs of ΔH^0 and ΔS^0; for Kd: read-out: Ka (binding constant) (converted). Details: species or system porcine. An excerpt: Judged by the Stern–Volmer equation, the formula is referred to (3):(3) F0/F=1+KSV[Q]=1+Kqτ0[Q],
The modified Stern–Volmer equation [34], formula reference (4):(4) F0/F=e^KSV[Q]=e^Kqτ0[Q],
The double logarithmic equation:(5) logF0−F/F=logKa+nlog[Q],
In the formula, F0 and F are the fluorescence intensities of the enzyme before and after the addition of four porphyrin compounds. KSV and Kq represent the fluorescence quenching constant and the quenching rate constant, respectively. τ0 (10^−8 s) is the average lifetime of the fluorescent molecule in the absence of the fluorescence quencher. [Q] denotes the concentration of the porphyrin compound. Ka is the binding constant. n is the number of binding sites.
The relevant thermodynamic parameters were calculated by Equations (6) and (7), and the Van’t Hoff curves of four porphyrin compounds and enzymes were obtained:(6) lnKa=−ΔH^0/RT+ΔS^0/R, (7) ΔG^0=ΔH^0−TΔS^0=−RTlnKa,
The method of Li et al. was referred to and appropriate changes were made. A series of concentrations of porphyrin compounds were mixed with pancreatic lipase (5 mg/mL) at a volume ratio of 1:1 and incubated at 298, 304, and 310 K for 5 min. The excitation wavelength of the Hitachi fluorescence spectrometer F-7000 ([…], Japan) was set to 280 nm, the slit width was set to 5 nm, and the scanning range was set to 300–500 nm. In order to eliminate the influence of ‘internal filtering effect’ [42], the following formula is used for correction. Fcor=Fobse^(Aex+Aem)/2 , where Fcor and Fobs are the corrected fluorescence intensity and the experimentally measured fluorescence intensity, and Aex and Aem are the UV absorption values of the system at the excitation and emission wavelengths, respectively.

Like-named read-outs stand apart in the source and are kept apart here.

Turning to `O=C([O-])c1ccc(C2=C3C=CC(=N3)C(c3ccc(C(=O)[O-])cc3)=C3C=CC(=N3)C(=c3ccc(=C([O-])[O-])cc3)c3ccc([n-]3)C(c3ccc(C(=O)[O-])cc3)=C3C=CC2=N3)cc1.[67Cu+2].[H+].[H+].[H+].[H+]` [Cu-TCPP, Cu (II) meso-Tetra (4-carboxyphenyl) porphine], the “Fluorescence quenching mechanism on PL” value is “static quenching”, the “ΔH^0” value was 5.1 ± 0.0096 kcal/mol, the “ΔS^0” value is on record as 150.70 ± 0.07 J/mol/k and the “Main driving forces of binding to PL” value was “hydrophobic forces”. Further, under “T 298 K”, the “Ka (binding constant)” value is recorded as 0.13 ± 0.01 ×10^5 L/mol, the “Kq (quenching rate constant)” value is recorded as 2.36 ± 0.01 ×10^12 L/mol/s, the “Ksv (fluorescence quenching constant)” value was 2.36 ± 0.01 ×10^4 L/mol and the “n (number of binding sites)” value came to 0.93. For the same compound, the “ΔG^0” value (T 298 K) was -5.631 ± 0.019 kcal/mol. For the same compound, under “T 304 K”, the “Ka (binding constant)” value is listed as 0.16 ± 0.01 ×10^5 L/mol, the “Kq (quenching rate constant)” value is listed as 2.33 ± 0.03 ×10^12 L/mol/s, the “Ksv (fluorescence quenching constant)” value is 2.33 ± 0.03 ×10^4 L/mol and the “n (number of binding sites)” value is recorded as 0.95. Besides, the “ΔG^0” value (T 304 K) was -5.851 ± 0.012 kcal/mol. Also, under “T 310 K”, the “Ka (binding constant)” value is recorded as 0.19 ± 0.01 ×10^5 L/mol, the “Kq (quenching rate constant)” value was 2.32 ± 0.03 ×10^12 L/mol/s, the “Ksv (fluorescence quenching constant)” value is listed as 2.32 ± 0.03 ×10^4 L/mol and the “n (number of binding sites)” value came to 0.97. In addition, the “ΔG^0” value (T 310 K) is -6.064 ± 0.012 kcal/mol.

For the compound `Nc1ccc(-c2c3nc(c(-c4ccc(N)cc4)c4ccc([nH]4)c(-c4ccc(N)cc4)c4nc(c(-c5ccc(N)cc5)c5ccc2[nH]5)C=C4)C=C3)cc1` [TAPP, 5,10,15,20-Tetrakis (4-aminophenyl) porphyrin], the “Fluorescence quenching mechanism on PL” value is “static quenching”; the “ΔH^0” value was -17.28 ± 0.012 kcal/mol; the “ΔS^0” value is given as −142.66 ± 0.06 J/mol/k; the “Main driving forces of binding to PL” value is “hydrogen bonds and van der Waals forces”. Where the note is “T 298 K”, the “Kq (quenching rate constant)” value is 9.70 ± 0.11 ×10^12 L/mol/s, the “Ksv (fluorescence quenching constant)” value was 9.70 ± 0.11 ×10^4 L/mol, the “n (number of binding sites)” value is listed as 1.05 and the “ΔG^0” value is -7.118 ± 0.012 kcal/mol. The Kd (T 298 K) is 6.02 µM. Also, under “T 304 K”, the “Kq (quenching rate constant)” value was 8.80 ± 0.06 ×10^12 L/mol/s, the “Ksv (fluorescence quenching constant)” value was 8.80 ± 0.06 ×10^4 L/mol, the “n (number of binding sites)” value is 1.01 and the “ΔG^0” value was -6.938 ± 0.017 kcal/mol. Where the note is “T 304 K”, the Kd is 10.3 µM. Also, for the setting “T 310 K”, the “Kq (quenching rate constant)” value is on record as 8.17 ± 0.08 ×10^12 L/mol/s, the “Ksv (fluorescence quenching constant)” value is listed as 8.17 ± 0.08 ×10^4 L/mol, the “n (number of binding sites)” value is given as 0.96 and the “ΔG^0” value was -6.707 ± 0.014 kcal/mol. Moreover, under “T 310 K”, the Kd was 18.5 µM.

As to `O=C(O)c1ccc(-c2c3nc(c(-c4ccc(C(=O)O)cc4)c4ccc([nH]4)c(-c4ccc(C(=O)O)cc4)c4nc(c(-c5ccc(C(=O)O)cc5)c5ccc2[nH]5)C=C4)C=C3)cc1` [TCPP, meso-Tetra (4-carboxyphenyl) porphine], the “Fluorescence quenching mechanism on PL” value is “static quenching”; the “ΔH^0” value was -16.39 ± 0.017 kcal/mol; the “ΔS^0” value is listed as −116.60 ± 0.11 J/mol/k; the “Main driving forces of binding to PL” value is “hydrogen bonds and van der Waals forces”. Also, for the setting “T 298 K”, the “Kq (quenching rate constant)” value was 4.60 ± 0.07 ×10^12 L/mol/s, the “Ksv (fluorescence quenching constant)” value is 4.60 ± 0.07 ×10^4 L/mol, the “n (number of binding sites)” value was 1.30 and the “ΔG^0” value is -8.076 ± 0.0096 kcal/mol. Also, the Kd (T 298 K) is 1.19 µM. Where the note is “T 304 K”, the “Kq (quenching rate constant)” value is 4.59 ± 0.06 ×10^12 L/mol/s, the “Ksv (fluorescence quenching constant)” value is 4.59 ± 0.06 ×10^4 L/mol, the “n (number of binding sites)” value worked out at 1.26 and the “ΔG^0” value is -7.945 ± 0.0311 kcal/mol. Also, where the note is “T 304 K”, the Kd was 1.94 µM. Further, for the setting “T 310 K”, the “Kq (quenching rate constant)” value is 4.50 ± 0.06 ×10^12 L/mol/s, the “Ksv (fluorescence quenching constant)” value is recorded as 4.50 ± 0.06 ×10^4 L/mol, the “n (number of binding sites)” value stood at 1.16 and the “ΔG^0” value was -7.739 ± 0.019 kcal/mol. Also, under “T 310 K”, the Kd was 3.5 µM.

Consider `Oc1ccc(-c2c3nc(c(-c4ccc(O)cc4)c4ccc([nH]4)c(-c4ccc(O)cc4)c4nc(c(-c5ccc(O)cc5)c5ccc2[nH]5)C=C4)C=C3)cc1` [THPP, 5,10,15,20-Tetrakis (4-hydroxyphenyl) porphyrin], for which the “Fluorescence quenching mechanism on PL” value is “mixed quenching dominated by static quenching and supplemented by dynamic quenching”; the “ΔH^0” value was -30.946 ± 0.0263 kcal/mol; the “ΔS^0” value is listed as −309.86 ± 0.12 J/mol/k; the “Main driving forces of binding to PL” value is “hydrogen bonds and van der Waals forces”. Where the note is “T 298 K”, the “Kq (quenching rate constant)” value was 1.36 ± 0.02 ×10^12 L/mol/s, the “Ksv (fluorescence quenching constant)” value was 1.36 ± 0.02 ×10^4 L/mol, the “n (number of binding sites)” value amounted to 1.52 and the “ΔG^0” value is -8.91 ± 0.0406 kcal/mol. Also, the Kd (T 298 K) is 0.292 µM. Moreover, under “T 304 K”, the “Kq (quenching rate constant)” value is 1.17 ± 0.03 ×10^12 L/mol/s, the “Ksv (fluorescence quenching constant)” value is listed as 1.17 ± 0.03 ×10^4 L/mol, the “n (number of binding sites)” value turned out to be 1.38 and the “ΔG^0” value is -8.363 ± 0.0263 kcal/mol. Also, the Kd (T 304 K) was 0.968 µM. For the same compound, under “T 310 K”, the “Kq (quenching rate constant)” value is given as 1.11 ± 0.04 ×10^12 L/mol/s, the “Ksv (fluorescence quenching constant)” value is on record as 1.11 ± 0.04 ×10^4 L/mol, the “n (number of binding sites)” value was 1.33 and the “ΔG^0” value was -8.023 ± 0.022 kcal/mol. Also, under “T 310 K”, the Kd was 2.2 µM.
